Source: PubChem BioAssay (NCI)
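Compound exposure: 48 hours, 5 concentrations, 96-well plates. GI50: concentration for 50% inhibition of growth. TGI marks complete inhibition of growth.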

Tests used:
Experiment in all cases: NCI-60 cell line screen, 48 h
[1] = tested on: 786-0 renal
[2] = tested on: A498 renal
[3] = tested on: A549 NSCLC
[4] = tested on: ACHN renal
[5] = tested on: BT-549 breast
[6] = tested on: CAKI-1 renal
[7] = tested on: CCRF-CEM leukemia
[8] = tested on: COLO 205 colon
[9] = tested on: DU-145 prostate
[10] = tested on: EKVX NSCLC
[11] = tested on: HCC-2998 colon
[12] = tested on: HCT-116 colon
[13] = tested on: HCT-15 colon
[14] = tested on: HL-60(TB) leukemia
[15] = tested on: HOP-62 NSCLC
[16] = tested on: HOP-92 NSCLC
[17] = tested on: HS 578T breast
[18] = tested on: HT29 colon
[19] = tested on: IGROV1 ovarian
[20] = tested on: K-562 leukemia
[21] = tested on: KM12 colon
[22] = tested on: LOX IMVI melanoma
[23] = tested on: M14 melanoma
[24] = tested on: MALME-3M melanoma
[25] = tested on: MCF7 breast
[26] = tested on: MDA-MB-231 breast
[27] = tested on: MDA-MB-435
[28] = tested on: MOLT-4 leukemia
[29] = tested on: NCI-H226 lung
[30] = tested on: NCI-H23 lung
[31] = tested on: NCI-H460 lung
[32] = tested on: NCI-H522 lung
[33] = tested on: NCI/ADR-RES ovarian
[34] = tested on: OVCAR-3 ovarian
[35] = tested on: OVCAR-4 ovarian
[36] = tested on: OVCAR-5 ovarian
[37] = tested on: OVCAR-8 ovarian
[38] = tested on: PC-3 prostate
[39] = tested on: RPMI-8226 leukemia
[40] = tested on: RXF 393 renal
[41] = tested on: SF-268 CNS
[42] = tested on: SF-295 CNS
[43] = tested on: SF-539 CNS
[44] = tested on: SK-MEL-2 melanoma
[45] = tested on: SK-MEL-28 melanoma
[46] = tested on: SK-MEL-5 melanoma
[47] = tested on: SK-OV-3 ovarian
[48] = tested on: SN12C renal
[49] = tested on: SNB-19 CNS
[50] = tested on: SNB-75 CNS
[51] = tested on: SR leukemia
[52] = tested on: SW-620 colon
[53] = tested on: T-47D breast
[54] = tested on: TK-10 renal
[55] = tested on: U251 CNS
[56] = tested on: UACC-257 melanoma
[57] = tested on: UACC-62 melanoma
[58] = tested on: UO-31 renal

O=C(C(=O)c1cccnc1)c1cccnc1
GI50 [1]: > 100 µM | TGI [1]: > 100 µM | GI50 [2]: > 100 µM | TGI [2]: > 100 µM | GI50 [3]: > 100 µM | TGI [3]: > 100 µM | GI50 [4]: > 100 µM | TGI [4]: > 100 µM | GI50 [5]: > 100 µM | TGI [5]: > 100 µM | GI50 [6]: > 100 µM | TGI [6]: > 100 µM | GI50 [7]: > 100 µM | TGI [7]: > 100 µM | GI50 [8]: > 100 µM | TGI [8]: > 100 µM | GI50 [9]: > 100 µM | TGI [9]: > 100 µM | GI50 [10]: > 100 µM | TGI [10]: > 100 µM | GI50 [11]: > 100 µM | TGI [11]: > 100 µM | GI50 [12]: > 100 µM | TGI [12]: > 100 µM | GI50 [13]: > 100 µM | TGI [13]: > 100 µM | GI50 [14]: > 100 µM | TGI [14]: > 100 µM | GI50 [15]: > 100 µM | TGI [15]: > 100 µM | GI50 [16]: > 100 µM | TGI [16]: > 100 µM | GI50 [17]: > 100 µM | TGI [17]: > 100 µM | GI50 [18]: > 100 µM | TGI [18]: > 100 µM | GI50 [19]: > 100 µM | TGI [19]: > 100 µM | GI50 [20]: > 100 µM | TGI [20]: > 100 µM | GI50 [21]: > 100 µM | TGI [21]: > 100 µM | GI50 [22]: > 100 µM | TGI [22]: > 100 µM | GI50 [23]: > 100 µM | TGI [23]: > 100 µM | GI50 [24]: > 100 µM | TGI [24]: > 100 µM | GI50 [25]: > 100 µM | TGI [25]: > 100 µM | GI50 [26]: > 100 µM | TGI [26]: > 100 µM | GI50 [27]: > 100 µM | TGI [27]: > 100 µM | GI50 [28]: > 100 µM | TGI [28]: > 100 µM | GI50 [29]: > 100 µM | TGI [29]: > 100 µM | GI50 [30]: > 100 µM | TGI [30]: > 100 µM | GI50 [31]: > 100 µM | TGI [31]: > 100 µM | GI50 [32]: > 100 µM | TGI [32]: > 100 µM | GI50 [33]: > 100 µM | TGI [33]: > 100 µM | GI50 [34]: > 100 µM | TGI [34]: > 100 µM | GI50 [35]: > 100 µM | TGI [35]: > 100 µM | GI50 [36]: > 100 µM | TGI [36]: > 100 µM | GI50 [37]: > 100 µM | TGI [37]: > 100 µM | GI50 [38]: > 100 µM | TGI [38]: > 100 µM | GI50 [39]: > 100 µM | TGI [39]: > 100 µM | GI50 [40]: > 100 µM | TGI [40]: > 100 µM | GI50 [41]: > 100 µM | TGI [41]: > 100 µM | GI50 [42]: > 100 µM | TGI [42]: > 100 µM | GI50 [43]: > 100 µM | TGI [43]: > 100 µM | GI50 [44]: > 100 µM | TGI [44]: > 100 µM | GI50 [45]: > 100 µM | TGI [45]: > 100 µM | GI50 [46]: > 100 µM | TGI [46]: > 100 µM | GI50 [47]: > 100 µM | TGI [47]: > 100 µM | GI50 [48]: > 100 µM | TGI [48]: > 100 µM | GI50 [49]: > 100 µM | TGI [49]: > 100 µM | GI50 [50]: > 100 µM | TGI [50]: > 100 µM | GI50 [51]: > 100 µM | TGI [51]: > 100 µM | GI50 [52]: > 100 µM | TGI [52]: > 100 µM | GI50 [53]: > 100 µM | TGI [53]: > 100 µM | GI50 [54]: > 100 µM | TGI [54]: > 100 µM | GI50 [55]: > 100 µM | TGI [55]: > 100 µM | GI50 [56]: > 100 µM | TGI [56]: > 100 µM | GI50 [57]: > 100 µM | TGI [57]: > 100 µM | GI50 [58]: > 100 µM | TGI [58]: > 100 µM
